We go through one substance from patent US9724448B2, “Materials for gastrointestinal obstruction prevention” (3-D MATRIX, LTD., priority 2013, dated 2017).

Type in all cases: in vivo, human
The subject of series [1] is ESD-induced ulcer (esophageal, gastric, colorectal ESD). The procedure: Testing was performed in human subjects in order to determine the ability of disclosed peptides to prevent gastrointestinal obstruction. Subjects who underwent esophageal, gastric, and colorectal endoscopic submucosal dissection (ESD) by nine endoscopists participated in the testing. Subjects receiving antithrombotic therapy were included in the study, but such medications were no longer being administered prior to the procedures. Cases with perforation and coagulopathy (international normalized ratio (INR)>3) despite anticoaculation management after heparin bridge therapy (HBT) were excluded. […] After the ESD procedure, a self-assembling peptide was administered to a target area in the subject. […] For every 1 cm^2 of tumor, 1 mL of self-assembling peptide RADA16, in the form of PuraMatrix™ peptide hydrogel by 3-D Matrix, LTD. (2.5 w/v percent) was applied to the ESD-induced ulcer using a catheter immediately after the procedure. A single dose proton pump inhibitor was administered in gastric ESD cases for 8 weeks beginning the morning of the procedure. Gastric ulcer stages were evaluated by endoscopy as active, healing or scarring at 1, 4, and 8 weeks after ESDs, and application of the self-assembling peptide. The primary endpoint was the rate of post-ESD bleeding. The secondary endpoints include the transitional rate to healing and scarring stages of gastric ESD-induced ulcers. Of the 117 subjects recruited, 114 patients with 124 lesions (esophagus 18; stomach 42; colorectum 64) were enrolled for outcome analysis and […] were excluded due to perforations and […].

Series [2] relates to artificial ulcer after ESD of early-stage esophageal cancer. Put plainly: Stenosis prevention after endoscopic resection of esophageal cancer (artificial ulcer, 4/5 circumferential spread). The procedure:
Testing was performed on a subject having an ulcer (lesion) after an endoscopic resection of esophageal cancer. […] Endoscopic submucosal dissection was performed, which created an ulcer. […] A ⅘ circumferential spread may cause stenosis in the absence of applying a peptide solution to form a hydrogel. After confirming that there was no hemorrhaging in the artificial ulcer surface after an endoscopic resection, a catheter was passed through an endoscope, and a peptide solution such as PuraMatrix™ peptide hydrogel by 3-D Matrix, LTD. (2.5%, suitable dose (1 mL per 1 cm^2)) in a syringe was coated evenly over the ulcer surface. […] On the first week after surgery, an endoscope is used to review the area. At this time, as with the initial round, the peptide solution is coated evenly over the ulcer surface. For past cases, an endoscope was used to perform a third and fourth review of the area, in the fourth and eighth weeks, respectively, after surgery that induced stenosis, to judge the effectiveness of the peptide solution coating. […] The endoscope passage is possible in stenosis direction.

For series [3], the system named is gastric ESD-induced ulcers. Put plainly: Gastric ulcer stage by endoscopy (active, healing, scarring) after ESD and peptide application. The procedure:
After the ESD procedure, a self-assembling peptide was administered to a target area in the subject. […] For every 1 cm^2 of tumor, 1 mL of self-assembling peptide RADA16, in the form of PuraMatrix™ peptide hydrogel by 3-D Matrix, LTD. (2.5 w/v percent) was applied to the ESD-induced ulcer using a catheter immediately after the procedure. A single dose proton pump inhibitor was administered in gastric ESD cases for 8 weeks beginning the morning of the procedure. Gastric ulcer stages were evaluated by endoscopy as active, healing or scarring at 1, 4, and 8 weeks after ESDs, and application of the self-assembling peptide. The primary endpoint was the rate of post-ESD bleeding. The secondary endpoints include the transitional rate to healing and scarring stages of gastric ESD-induced ulcers.

Where two headings read alike, the source gives them in different places.

“Arg-Ala-Asp-Ala-Arg-Ala-Asp-Ala-Arg-Ala-Asp-Ala-Arg-Ala-Asp-Ala [PuraMatrix]”: the “rate of post-ESD bleeding” value is 1.6% in series [1] (all lesions (2/124), 2.5 w/v percent, 1 mL per 1 cm^2, by catheter immediately after ESD); 1.6% in series [1] (colorectum (1/64; 0.02% to 1.6%)); 0% in series [1] (esophagus); 2.4% in series [1] (stomach (1/43; 95% confidence interval 0.04% to 12.3%)). The “adverse effects related with the use of the self-assembling peptide” value in series [1] (in vivo) is “no adverse effects”. In addition, the “endoscope passage in stenosis direction” value in series [2] (4 weeks after surgery) and in series [2] (8 weeks after surgery) was “possible” each time. In addition, in series [2] (4 weeks after surgery, 2.5%, 1 mL per 1 cm^2, coated at surgery and at first week), the “ulcer state by endoscope” value was “scarring”. In addition, the “side effects of the endoscopic resection (delayed hemorrhaging, perforations)” value in series [2] (one subject, esophageal ESD) is reported as “no delayed hemorrhaging or perforations”. Moreover, the “Transitional rate to healing stage” value in series [3] (at 1 week after ESD, with proton pump inhibitor) worked out at 98%. The “scarring stage at follow up endoscopy” value in series [3] (at 4 weeks after ESD) stood at 21%; in series [3] (at 8 weeks after ESD) it was 97%.
